Test results: ChEMBL document CHEMBL1201862, “PubChem BioAssay data set” (2004)
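Interpolation was linear, between the two tested concentrations surrounding the appropriate level; five concentrations were tested over 48 hours in 96-well plates. GI50 is the concentration that inhibits growth by half.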 Activity calls are given as the source filed them. Rule as the data show it: active = GI50 up to about 1.1 µM and inactive = higher.

Tests used:
Test in all cases: NCI tumour cell line growth inhibition, 48 h
MOLT-4 = tested on: MOLT-4
SNB-75 = tested on: SNB-75
HOP-92 = tested on: HOP-92
MDA-MB-435 = tested on: MDA-MB-435
NCI-H23 = tested on: NCI-H23
PC-3 = tested on: PC-3
MDA-MB-231 = tested on: MDA-MB-231
HCC 2998 = tested on: HCC 2998
OVCAR-3 = tested on: OVCAR-3
T47D = tested on: T47D
SW-620 = tested on: SW-620
HCT-116 = tested on: HCT-116
UACC-257 = tested on: UACC-257
SK-MEL-28 = tested on: SK-MEL-28
ACHN = tested on: ACHN
CAKI-1 = tested on: CAKI-1
NCI/ADR-RES = tested on: NCI/ADR-RES
M14 = tested on: M14
RXF 393 = tested on: RXF 393
A549 = tested on: A549

| SMILES | GI50 (MOLT-4) | GI50 (SNB-75) | GI50 (HOP-92) | GI50 (MDA-MB-435) | GI50 (NCI-H23) | GI50 (PC-3) | GI50 (MDA-MB-231) | GI50 (HCC 2998) | GI50 (OVCAR-3) | GI50 (T47D) | GI50 (SW-620) | GI50 (HCT-116) | GI50 (UACC-257) | GI50 (SK-MEL-28) | GI50 (ACHN) | GI50 (CAKI-1) | GI50 (NCI/ADR-RES) | GI50 (M14) | GI50 (RXF 393) | GI50 (A549) |
| --- | --- | --- | --- | --- | --- | --- | --- | --- | --- | --- | --- | --- | --- | --- | --- | --- | --- | --- | --- | --- |
| C[C@]12CC[C@@H]3c4ccc(O)cc4CC[C@H]3[C@@H]1C/C(=C\c1ccncc1)[C@@H]2O | 3.6 µM (inactive) | 2.98 µM (inactive) | 5.32 µM (inactive) | 2.92 µM (inactive) | 3.1 µM (inactive) | 10.4 µM (inactive) | 10.1 µM (inactive) | 7.96 µM (inactive) | 11.5 µM (inactive) | 3.55 µM (inactive) | 9.27 µM (inactive) | 10.9 µM (inactive) | 14.5 µM (inactive) | 22.3 µM (inactive) | 11.2 µM (inactive) | 12.8 µM (inactive) | 5.56 µM (inactive) | 20.6 µM (inactive) | 2.5 µM (inactive) | 7.36 µM (inactive) |
| CCOC(=O)OC1(c2ccccc2)CCN(C)CC1 | > 100 µM (inactive) | > 100 µM (inactive) | > 100 µM (inactive) | > 100 µM (inactive) | > 100 µM (inactive) | > 100 µM (inactive) | > 100 µM (inactive) | > 100 µM (inactive) | > 100 µM (inactive) | > 100 µM (inactive) | > 100 µM (inactive) | > 100 µM (inactive) | > 100 µM (inactive) | > 100 µM (inactive) | > 100 µM (inactive) | > 100 µM (inactive) | > 100 µM (inactive) | > 100 µM (inactive) | > 100 µM (inactive) | > 100 µM (inactive) |
| N#CC1(C#N)C2CCCCC23OC(=N)C1(C#N)C(c1ccco1)O3 (centres undefined) | 23 µM (inactive) | 55.5 µM (inactive) | 13.8 µM (inactive) | 19.8 µM (inactive) | 26.1 µM (inactive) | 23 µM (inactive) | 16.7 µM (inactive) | 15.1 µM (inactive) | 16.1 µM (inactive) | 17.6 µM (inactive) | 7.76 µM (inactive) | 17.4 µM (inactive) | 17.7 µM (inactive) | 15.6 µM (inactive) | 28.5 µM (inactive) | 11.6 µM (inactive) | 44.3 µM (inactive) | 20.4 µM (inactive) | 21.7 µM (inactive) | > 100 µM (inactive) |
| Nc1nc(Sc2ccc([N+](=O)[O-])c3nonc23)c2nc[nH]c2n1 | 0.301 µM (active) | 3.31 µM (inactive) | 2.56 µM (inactive) | 0.59 µM (active) | 2.25 µM (inactive) | 3.34 µM (inactive) | 0.731 µM (active) | 1.08 µM (active) | 0.624 µM (active) | 1.2 µM (inactive) | 1.01 µM (active) | 0.622 µM (active) | 2.13 µM (inactive) | 10.5 µM (inactive) | 2.22 µM (inactive) | 0.36 µM (active) | 0.495 µM (active) | 0.363 µM (active) | 1.36 µM (inactive) | 3.69 µM (inactive) |
| Nc1ncnc2c1ccn2C/C=C\CO | 85.9 µM (inactive) | > 100 µM (inactive) | > 100 µM (inactive) | > 100 µM (inactive) | > 100 µM (inactive) | > 100 µM (inactive) | > 100 µM (inactive) | > 100 µM (inactive) | > 100 µM (inactive) | > 100 µM (inactive) | > 100 µM (inactive) | > 100 µM (inactive) | > 100 µM (inactive) | > 100 µM (inactive) | > 100 µM (inactive) | > 100 µM (inactive) | > 100 µM (inactive) | > 100 µM (inactive) | > 100 µM (inactive) | > 100 µM (inactive) |
| O=C(C[N+]1(c2ccccc2)CCOCC1)c1ccccc1 | 30.4 µM (inactive) | > 100 µM (inactive) | > 100 µM (inactive) | > 100 µM (inactive) | > 100 µM (inactive) | > 100 µM (inactive) | > 100 µM (inactive) | > 100 µM (inactive) | > 100 µM (inactive) | > 100 µM (inactive) | – | > 100 µM (inactive) | 72.8 µM (inactive) | 0.0445 µM (active) | > 100 µM (inactive) | > 100 µM (inactive) | > 100 µM (inactive) | > 100 µM (inactive) | > 100 µM (inactive) | > 100 µM (inactive) |
| O=C(NC(=O)c1cc(-c2ccccc2)n[nH]1)c1ccccc1 | > 100 µM (inactive) | 26.5 µM (inactive) | > 100 µM (inactive) | > 100 µM (inactive) | > 100 µM (inactive) | > 100 µM (inactive) | > 100 µM (inactive) | > 100 µM (inactive) | > 100 µM (inactive) | > 100 µM (inactive) | > 100 µM (inactive) | > 100 µM (inactive) | > 100 µM (inactive) | > 100 µM (inactive) | > 100 µM (inactive) | > 100 µM (inactive) | > 100 µM (inactive) | > 100 µM (inactive) | > 100 µM (inactive) | > 100 µM (inactive) |
| CN(C)c1nc(NC23CC4CC(CC(C4)C2)C3)nc(N(C)C)n1 | 10 µM (inactive) | 7.35 µM (inactive) | 10.6 µM (inactive) | 21.4 µM (inactive) | 9.33 µM (inactive) | 8.32 µM (inactive) | 9.98 µM (inactive) | > 27.5 µM (inactive) | 17.2 µM (inactive) | 7.29 µM (inactive) | 12.3 µM (inactive) | 20.7 µM (inactive) | 31.3 µM (inactive) | 22 µM (inactive) | 22.3 µM (inactive) | 37.6 µM (inactive) | 23.4 µM (inactive) | 13.1 µM (inactive) | 3.48 µM (inactive) | 8.59 µM (inactive) |
| CCSc1cc(=O)n(C)c(=O)n1C | > 100 µM (inactive) | 42.7 µM (inactive) | > 100 µM (inactive) | > 100 µM (inactive) | > 100 µM (inactive) | > 100 µM (inactive) | > 100 µM (inactive) | > 100 µM (inactive) | > 100 µM (inactive) | > 100 µM (inactive) | > 100 µM (inactive) | > 100 µM (inactive) | > 100 µM (inactive) | > 100 µM (inactive) | > 100 µM (inactive) | > 100 µM (inactive) | > 100 µM (inactive) | > 100 µM (inactive) | > 100 µM (inactive) | > 100 µM (inactive) |
| O=C(O)C1=NN(c2ccc(S(=O)(=O)O)cc2)C2(C1)C(Cl)C(=O)N2c1nc2ccccc2s1 (centres undefined) | 15.3 µM (inactive) | 13.5 µM (inactive) | 20.5 µM (inactive) | 16.2 µM (inactive) | 14.4 µM (inactive) | 16.6 µM (inactive) | 19 µM (inactive) | 18.8 µM (inactive) | 12.8 µM (inactive) | 20.5 µM (inactive) | 2.68 µM (inactive) | 16.5 µM (inactive) | 17.2 µM (inactive) | 20.2 µM (inactive) | 17 µM (inactive) | 15.4 µM (inactive) | 23.9 µM (inactive) | 15.7 µM (inactive) | 16.1 µM (inactive) | 16.6 µM (inactive) |
| O=[N+]([O-])c1ccc(Cl)cc1/C=N/C12CC3CC(CC(C3)C1)C2 | 18.5 µM (inactive) | > 68.1 µM (inactive) | 79.1 µM (inactive) | 47.6 µM (inactive) | 50.9 µM (inactive) | 35.9 µM (inactive) | 40.3 µM (inactive) | > 82.4 µM (inactive) | 46.9 µM (inactive) | 37.4 µM (inactive) | 22 µM (inactive) | 5.24 µM (inactive) | > 31.6 µM (inactive) | 76.9 µM (inactive) | > 87.9 µM (inactive) | > 100 µM (inactive) | 30.1 µM (inactive) | 45.5 µM (inactive) | 53.1 µM (inactive) | > 96.8 µM (inactive) |
| CCCn1c2c(c3ccccc3c1=O)C(=O)c1ccccc1-2 | 3.61 µM (inactive) | > 48.8 µM (inactive) | > 57.4 µM (inactive) | > 100 µM (inactive) | > 68.9 µM (inactive) | > 100 µM (inactive) | > 40.4 µM (inactive) | > 100 µM (inactive) | > 100 µM (inactive) | > 54.1 µM (inactive) | > 53.5 µM (inactive) | 25.2 µM (inactive) | > 100 µM (inactive) | > 68.9 µM (inactive) | 53.6 µM (inactive) | 48.3 µM (inactive) | > 100 µM (inactive) | 68.1 µM (inactive) | 82.4 µM (inactive) | 36.4 µM (inactive) |
| O=C(O)c1nn(-c2ccccc2-c2nnc(O)nc2O)c(=O)[nH]c1=O | 4.73 µM (inactive) | > 100 µM (inactive) | > 100 µM (inactive) | > 100 µM (inactive) | > 100 µM (inactive) | > 100 µM (inactive) | > 100 µM (inactive) | > 100 µM (inactive) | > 100 µM (inactive) | > 100 µM (inactive) | > 100 µM (inactive) | > 100 µM (inactive) | > 100 µM (inactive) | > 100 µM (inactive) | > 100 µM (inactive) | > 100 µM (inactive) | > 100 µM (inactive) | > 100 µM (inactive) | > 100 µM (inactive) | > 100 µM (inactive) |
| CC12CCC(C(Br)(Br)C1=O)C2(C)C (centres undefined) | 0.091 µM (active) | 0.711 µM (active) | 0.617 µM (active) | 0.0942 µM (active) | 0.123 µM (active) | 1.07 µM (active) | 0.104 µM (active) | 2.28 µM (inactive) | 0.507 µM (active) | 0.0467 µM (active) | < 0.0476 µM (active) | 0.128 µM (active) | 2.74 µM (inactive) | 0.826 µM (active) | 0.553 µM (active) | 1.8 µM (inactive) | 0.131 µM (active) | 0.125 µM (active) | 0.183 µM (active) | 4.07 µM (inactive) |
